The values that follow come from paper PMC11108860 (Heliyon, 2024).

SMILES strings stand for the structures. Like-named read-outs stand apart in the source and are kept apart here.

One experiment concerns the target T1, OR2AT4 (Homo sapiens, UniProt A6NND4).
T1 sequence (A6NND4 1-320): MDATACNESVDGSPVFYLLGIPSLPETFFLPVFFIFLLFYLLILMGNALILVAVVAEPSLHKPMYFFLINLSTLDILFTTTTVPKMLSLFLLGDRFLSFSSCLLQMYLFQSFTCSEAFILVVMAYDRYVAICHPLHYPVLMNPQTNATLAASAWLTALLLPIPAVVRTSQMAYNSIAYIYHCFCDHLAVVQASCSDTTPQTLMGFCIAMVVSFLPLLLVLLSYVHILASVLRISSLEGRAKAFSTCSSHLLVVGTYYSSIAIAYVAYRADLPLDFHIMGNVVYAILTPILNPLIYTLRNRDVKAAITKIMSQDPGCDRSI
Kind of experiment: Calcium imaging. Conditions: 0 to 1 mM; OR2AT4-expressing cells. Type of experiment: cell-based.

Experiment [1] has as its system K562 cells. As to the kind of experiment: Apoptosis assay. Particulars: for percentage of total apoptotic cells: 200 μM. The format is cell-based, human.
Experiment [2] deals with K562 cells. As to the kind of experiment: Western blotting of proliferation- and apoptosis-related proteins in K562 cells. Conditions: for cleaved caspase-3 after inhibitor treatment: Fig. 6B,D, similar to EGCG treatment. Type of experiment: cell-based, human.
For experiment [3], the system named is Molt-4 cells. Kind of experiment: Cell viability assay. Type of experiment: cell-based. Particulars: 24, 48, and 72 h.
Experiment [4] concerns Molt-4 cells. As to the kind of experiment: Calcium imaging. Type of experiment: cell-based.
Experiment [5] deals with K562 cells. As to the kind of experiment: Cell viability assay. The format is cell-based, human. Conditions: for IC50: Homo sapiens, read-out: IC50 (cell viability); for cell viability: K562.
Experiment [6] relates to K562 cells. As to the kind of experiment: Calcium imaging. Type of experiment: cell-based, human.
The next experiment addresses T2, OR2AT4-6xHis protein (Homo sapiens, UniProt A6NND4).
T2 sequence (A6NND4 1-320): T1 sequence (A6NND4 1-320)
Kind of experiment: SPR sensorgrams on immobilized OR2AT4-6xHis, concentration series. The format is binding. Conditions: 100 μM (Fig. 2A).

Where [7] appears, read: K562, EGCG 200 μM, 30 min after treatment.
Where [8] appears, read: OR2AT4 siRNA-transfected K562 cells, EGCG treatment.

For the compound `COc1cc2c3cc1Oc1c(OC)c(OC)cc4c1[C@@H](Cc1ccc(O)c(c1)Oc1ccc(cc1)C[C@@H]3N(C)CC2)N(C)CC4` [Berbamine], the “intracellular calcium response, dose-response” value on OR2AT4 is “increased intracellular calcium levels in a concentration-dependent manner”.

By IC50 is commonly meant the concentration at which inhibition is half-maximal. For `O=C(O[C@@H]1Cc2c(O)cc(O)cc2O[C@@H]1c1cc(O)c(O)c(O)c1)c1cc(O)c(O)c(O)c1` [EGCG, (−)-epigallocatechin gallate], in the experiment on K562 cells [1] (200 μM, 24, 48, and 72 h), the “percentage of late apoptotic cells, time course” value is listed as “increased the percentage of late apoptotic cells in a time-dependent manner”. The “percentage of total apoptotic cells” value was determined as 50% with K562 cells [1] (24 h), 58.03% with K562 cells [1] (48 h) and 64.52% with K562 cells [1] (72 h). Also, in the experiment on K562 cells [2] (K562), the “expression of Bax” value is “no significant difference”. In addition, in the experiment on K562 cells [2] (K562), the “expression of Bcl-2” value was “no significant difference”. For the same compound, the “levels of cleaved caspase-3, time course” value in the experiment on K562 cells [2] (K562, 200 μM, 24 and 48 h) was “increased in a time-dependent manner”. Further, the “protein level of phosphor-AKT” value in the experiment on K562 cells [2] (setting [7]) is on record as “downregulated”. Moreover, the “protein level of phosphor-p38 MARK” value with K562 cells [2] (setting [7]) is recorded as “downregulated”. Besides, the “expression of phosphor-STAT5” value in the experiment on K562 cells [2] (K562, EGCG 200 μM, starting from 15 min) is “began to decrease”. Also, the “expression levels of cleaved caspase-8” value in the experiment with K562 cells [2] (K562, time- and concentration-dependent) is “upregulated”. For the same compound, the “caspase-8 in OR2AT4 siRNA-transfected K562 cells” value in the experiment on K562 cells [2] (setting [8]) is given as “significantly reduced”. Besides, in the experiment on K562 cells [2] (setting [8]), the “cleaved caspase-3 in OR2AT4 siRNA-transfected K562 cells” value was “significantly reduced”. Further, the “concentrations with sudden onset of cell death” value with Molt-4 cells [3] is given as “above 100 μM”. Also, the “intracellular calcium response in Molt-4 cells” value in the experiment on Molt-4 cells [4] (200 μM) is “no immediate calcium response”. Also, the IC50 stood at 146 µM in the experiment with K562 cells [5] (K562, 48 h) and 158 µM with K562 cells [5] (K562, 72 h). For the same compound, the cell viability entry with K562 cells [5] (24, 48, and 72 h, 0-500 μM) was “decreased cell viability in a time- (24, 48, and 72 h) and concentration-dependent manner”. Also, at OR2AT4, the “intracellular calcium response, dose-response” value is listed as “increased intracellular calcium levels in a concentration-dependent manner”. Besides, the “intracellular calcium response in K562 cells” value in the experiment with K562 cells [6] (0.2 mM) is given as “elevated the calcium response”.

`CCCCCCCCCCCCCCCCCCOP(=O)([O-])OC1CC[N+](C)(C)CC1` [Perifosine, reference compound]: the p-Akt result in the experiment with K562 cells [2] (K562, Fig. 6A) is recorded as “downregulation”. The “cleaved caspase-3 after inhibitor treatment” value in the experiment with K562 cells [2] (K562) was “upregulation”.

With `C[S+]([O-])c1ccc(-c2nc(-c3ccncc3)c(-c3ccc(F)cc3)[nH]2)cc1` (stereo not drawn) [SB203580, reference compound], in the experiment with K562 cells [2] (K562), the “cleaved caspase-3 after inhibitor treatment” value is “upregulation”. Also, the “p-p38 MAPK” value in the experiment on K562 cells [2] (K562, Fig. 6C) was “downregulation”.

With `CC1=CCC(CCC(C)C(C)O)C1(C)C` (stereo not drawn) [Sandalore, reference compound], in the experiment on Molt-4 cells [4] (2 mM), the “intracellular calcium response in Molt-4 cells” value is recorded as “no immediate calcium response”. Also, the cell viability entry in the experiment on K562 cells [5] (Fig. S2) is listed as “decreased cell viability in a concentration-dependent manner”. Moreover, the “intracellular calcium response, dose-response” value at OR2AT4 is “increased calcium response in a concentration-dependent manner”. In addition, in the experiment on K562 cells [6] (2 mM), the “intracellular calcium response in K562 cells” value was “increased intracellular Ca^2+ levels”. Moreover, the “reactivity with OR2AT4 recombinant protein (SPR)” value at OR2AT4-6xHis protein is given as “confirming the reactivity”.
